The results in this text go back to ChEMBL document CHEMBL3872237, “Nitric oxide-donating derivatives of hederacolchiside A1: Synthesis and biological evaluation in vitro and in vivo as potential anticancer agents” (Bioorg Med Chem Lett, 2017).

Data set [1] is described as follows: Growth inhibition of human SMMC7721 cells after 48 hrs by MTT assay. Particulars: SMMC-7721, 48 h; call rule not given here. It is filed as functional, cell-based. On the technique in general: Tetrazolium dyes change colour on reduction, which living cells bring about.
Data set [2] in a line: Growth inhibition of human NCI-H460 cells after 48 hrs by MTT assay. It is filed as functional, cell-based. The note with it: NCI-H460, 48 h.
Data set [3] is described as follows: Growth inhibition of human U251 cells after 48 hrs by MTT assay. The note with it: U-251, 48 h. It is filed as functional, cell-based.
A short description of data set [4]: Growth inhibition of human HCT116 cells after 48 hrs by MTT assay. It is filed as functional, cell-based. The note with it: HCT-116, 48 h.
A short description of data set [5]: Haemolytic activity in New Zealand rabbit erythrocytes after 60 mins. It is filed as ADME, cell-based, Oryctolagus cuniculus, Erythrocyte. The note with it: read-out: HD50.
Data set [6] can be described thus: Solubility of the compound. It is filed as physicochemical.
In data set [7] the test system is Mus musculus. As to the kind of experiment: Acute toxicity in mouse assessed as death at <8 mg/kg measured up to 1 hr. Particulars: in vivo. It is filed as organism-based.
Data set [8] can be described thus: Antitumor activity against mouse H22 cells xenografted in nude Kunming mouse assessed as tumor growth inhibition at 6 mg/kg/3 days for 5 times administered iv measured 24 hrs post last dose relative to control. It is filed as functional. The note with it: read-out: TGI.
Data set [9] can be described thus: Antiproliferative activity against human SMMC7721 cells after 48 hrs by resazurin reduction assay. It is filed as functional, cell-based. The note with it: SMMC-7721, 48 h. A general note: Resazurin is reduced to fluorescent resorufin, in cell work by metabolically active cells.
The nature of data set [10]: Antiproliferative activity against human NCI-H460 cells after 48 hrs by resazurin reduction assay. It is filed as functional, cell-based. The note with it: NCI-H460, 48 h.
Data set [11] can be described thus: Antiproliferative activity against human U251 cells after 48 hrs by resazurin reduction assay. Particulars: U-251, 48 h. It is filed as functional, cell-based.
The nature of data set [12]: Antiproliferative activity against human HCT116 cells after 48 hrs by resazurin reduction assay. The note with it: HCT-116, 48 h. It is filed as functional, cell-based.
The nature of data set [13]: Induction of NO release in DMSO incubated up to 6 hrs by Griess assay. It is filed as physicochemical. In general terms: The Griess reaction detects nitrite, a stable product of nitric oxide.
Data set [14] has as its system Mus musculus. As to the kind of experiment: Acute toxicity in mouse assessed as death at >168 mg/kg measured after 14 days. It is filed as organism-based. Particulars: in vivo, 336 h.
Data set [15] can be described thus: Antitumor activity against mouse H22 cells xenografted in nude Kunming mouse assessed as tumor growth inhibition at 10 mg/kg/day, iv for 14 days measured 24 hrs post last dose relative to control. It is filed as functional. The note with it: read-out: TGI.
Data set [16] is described as follows: Antitumor activity against mouse H22 cells xenografted in nude Kunming mouse assessed as tumor growth inhibition at 20 mg/kg/day, iv for 14 days measured 24 hrs post last dose relative to control. The note with it: read-out: TGI. It is filed as functional.
For data set [17], the system named is Mus musculus. Nature of the data set: Toxicity in nude Kunming mouse xenografted with mouse H22 cells assessed as mouse death at 10 to 20 mg/kg/day, iv for 14 days measured 24 hrs post last dose. It is filed as organism-based. Particulars: in vivo.

A word on the IC50: it is the midpoint of a concentration-inhibition curve. Read a low IC50 as inhibition by little substance.

Structures are written as SMILES.

With `CC(CCOc1no[n+]([O-])c1S(=O)(=O)c1ccccc1)OC(=O)[C@]12CCC(C)(C)C[C@H]1C1=CC[C@@H]3[C@@]4(C)CC[C@H](O[C@@H]5OC[C@H](O[C@@H]6O[C@H](CO)[C@@H](O)[C@H](O)[C@H]6O)[C@H](O)[C@H]5O[C@@H]5O[C@@H](C)[C@H](O)[C@@H](O)[C@H]5O)C(C)(C)[C@@H]4CC[C@@]3(C)[C@]1(C)CC2` (some centres not stated), the IC50 in data set [1] turned out to be 3.7 µM; in [2], 6.2 µM; in data set [3], 2.3 µM; in data set [4] it was 11.2 µM.
For the compound `C[C@@H]1O[C@@H](O[C@H]2C(O[C@H]3CC[C@]4(C)[C@H]5CC=C6[C@@H]7CC(C)(C)CC[C@]7(C(=O)O)CC[C@@]6(C)[C@]5(C)CC[C@H]4C3(C)C)OC[C@H](O[C@@H]3O[C@H](CO)[C@@H](O)[C@H](O)[C@H]3O)[C@@H]2O)[C@H](O)[C@H](O)[C@H]1O` (single isomer, unassigned) [HEDERACOLCHISIDE A1], the IC50 in data set [1] was 2.8 µM; in data set [2] it was 3.7 µM; in data set [3], 2.2 µM; in [4], 8.4 µM; in [9], 2.2 to 8.4 µM; in data set [10], 2.2 to 8.4 µM. The IC50 in [11] and in data set [12] was 2.2 to 8.4 µM in each case. Also, the HC50 at 1 h in data set [5] stood at 6.7 µM. Also, the solubility result in [6] is “Insoluble”. For the same compound, the Activity entry in the data set on Mus musculus [7] was “Toxic”. Besides, the inhibition in vivo at 6 mg/kg in data set [8] worked out at 47.5%.
Take `C[C@@H]1O[C@@H](O[C@H]2[C@H](O[C@H]3CC[C@]4(C)[C@H]5CC=C6[C@@H]7CC(C)(C)CC[C@]7(C(=O)OCCCOc7no[n+]([O-])c7S(=O)(=O)c7ccccc7)CC[C@@]6(C)[C@]5(C)CC[C@H]4C3(C)C)OC[C@H](O[C@@H]3O[C@H](CO)[C@@H](O)[C@H](O)[C@H]3O)[C@@H]2O)[C@H](O)[C@H](O)[C@H]1O`: the IC50 in data set [1] was 1.9 µM; in data set [2], 3.1 µM; in [3], 1.6 µM; in [4] it was 6.5 µM. Moreover, the Activity entry in data set [13] was “Active”; in the data set with Mus musculus [14] it was “Non-Toxic”; in the data set on Mus musculus [17], “Non-Toxic”. For the same compound, the HC50 at 1 h in [5] is 280 µM. Further, in data set [6], the solubility entry is “Insoluble”. Also, in data set [15], the inhibition in vivo at 10 mg/kg/day came out at 38.3%. Moreover, in data set [16], the inhibition in vivo at 20 mg/kg/day amounted to 51.5%.
On to `C[C@@H]1O[C@@H](O[C@H]2C(O[C@H]3CC[C@]4(C)[C@H]5CC=C6[C@@H]7CC(C)(C)CC[C@]7(C(=O)OCCCCOc7no[n+]([O-])c7S(=O)(=O)c7ccccc7)CC[C@@]6(C)[C@]5(C)CC[C@H]4C3(C)C)OC[C@H](O[C@@H]3O[C@H](CO)[C@@H](O)[C@H](O)[C@H]3O)[C@@H]2O)[C@H](O)[C@H](O)[C@H]1O` (single isomer, unassigned), for which the IC50 in data set [1] worked out at 2.6 µM; in data set [2], 3.4 µM; in data set [3], 2.1 µM; in data set [4] it was 7.3 µM. Also, the result in [13] was Active.
`C[C@@H]1O[C@@H](O[C@H]2C(O[C@H]3CC[C@]4(C)[C@H]5CC=C6[C@@H]7CC(C)(C)CC[C@]7(C(=O)OC/C=C/COc7no[n+]([O-])c7S(=O)(=O)c7ccccc7)CC[C@@]6(C)[C@]5(C)CC[C@H]4C3(C)C)OC[C@H](O[C@@H]3O[C@H](CO)[C@@H](O)[C@H](O)[C@H]3O)[C@@H]2O)[C@H](O)[C@H](O)[C@H]1O` (single isomer, unassigned): the IC50 worked out at 4.5 µM in data set [1], 6.8 µM in data set [2], 3.1 µM in data set [3] and 10.1 µM in [4].
Regarding `O=[N+]([O-])OCC(CO[N+](=O)[O-])O[N+](=O)[O-]` [NITROGLYCERIN], the result in [13] was Active.
